The record followed here is patent publication US8569295B2, “Bicyclic urea compounds” (Merck Patent GmbH, priority 2009, dated 2013).

The target in this assay is T1, GST-Aurora A (Homo sapiens, UniProt O14965).
T1 construct: N-terminal GST fusion with full length Aurora A (1-403 amino acids); purchased Carna Biosciences 05-101
T1 sequence (O14965 1-403): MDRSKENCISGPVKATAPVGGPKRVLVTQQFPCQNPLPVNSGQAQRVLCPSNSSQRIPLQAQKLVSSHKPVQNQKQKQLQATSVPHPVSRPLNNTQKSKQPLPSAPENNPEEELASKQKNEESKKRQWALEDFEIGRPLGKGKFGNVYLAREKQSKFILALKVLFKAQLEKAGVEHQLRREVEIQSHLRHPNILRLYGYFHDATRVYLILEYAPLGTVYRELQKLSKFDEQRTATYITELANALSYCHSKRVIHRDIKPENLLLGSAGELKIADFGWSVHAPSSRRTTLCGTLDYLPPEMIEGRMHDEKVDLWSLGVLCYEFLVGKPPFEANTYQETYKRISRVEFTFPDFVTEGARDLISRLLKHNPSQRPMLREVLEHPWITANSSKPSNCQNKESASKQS
Put plainly: Aurora A kinase biochemical mobility shift assay (Caliper LC3000 / Desktop Profiler). The note with it: AK A (Aurora kinase A) inhibition. The method, then:
The Aurora assays described here are performed on two Caliper Life Sciences systems: the LC3000 and the Desktop Profiler. The RON kinase assays are performed on the Desktop Profiler only. These provide data on enzyme activity via measurement of the relative amounts of phosphorylated or unphosphorylated fluorescently labelled substrate peptide at the end of an enzymatic reaction. These different states of peptide are resolved by applying a potential difference across the sample. The presence of the charged phosphate group on the product (as opposed to the substrate) causes a different peptide mobility between the two peptides. This is visualized by excitation of the fluorescent label on the substrate and product peptides and represented as peaks within the analysis software.
In order to measure inhibitor activity of Aurora A inhibitors in the Caliper Life Sciences LC3000, a TTP Mosquito liquid handling instrument is used to place 0.25 ul of the appropriate concentration of inhibitor in 100% DMSO (for a dose response curve calculation) into each well of a 384-well plate. To this reaction components are added to a final volume of 25 ul: • 0.067 ng/ul GST-Aurora A (Carna Biosciences 05-101. N-terminal GST fusion with full length Aurora A (1-403 amino acids), accession number NP_940835.1). • 15 uM ATP (Fluka, 02055) • 1 mM DTT (Sigma, D0632) • 1 mM MgCl2 (Sigma, M1028) • 1 uM substrate peptide (sequence FITC-LRRASLG-(CONH2), synthesized by Tufts Peptide Synthesis service. • 100 mM HEPES pH 7.5 (Calbiochem, 391338) • 0.015% Brij-35 (Sigma, B4184)
The reaction is incubated for 90 min at 25 C, and then stopped by the addition of 70 ul of Stop buffer (100 mM HEPES pH 7.5, 0.015% Brij-35, 10 mM EDTA (Sigma, E7889)).
The plate is read on a Caliper LC3000 in an Off-Chip mobility shift assay format, using the following parameters for a 12-sipper chip: screening pressure −1.8 psi, upstream voltage −2700, downstream voltage −1000. These conditions cause unphosphorylated substrate and phosphorylated product peptide to resolve as separate peaks allowing direct measurement of percentage of conversion of substrate to product. The percent conversion can be plotted against concentration of inhibitor to produce a sigmoidal dose response curve, from which an IC50 can be calculated using XLFit for Microsoft Excel.
The Desktop Profiler utilizes the same priniciple as the LC3000 for calculating percentage conversion of a substrate to product. Caliper Life Sciences provides proprietary flash frozen pre-made 384 well plates containing selected kinases. Each column in the 384 well plate contains a particular selected kinase. A second plate, the ‘substrate plate’ contains a mix of fluorescently labeled peptide substrate and ATP. These are arranged in columns so that transfer for substrate plate to enzyme plate provides the correct enzyme with the correct substrate/ATP concentration. Compounds are added to a thawed enzyme plate in the desired format, in single concentrations. Reactions are initiated by transfer of the substrate/ATP mix from the substrate plate. The enzyme plate is incubated for 90 minutes at 25 C. The reaction is stopped by addition of 70 ul of Stop Buffer (100 mM HEPES pH 7.5, 0.015% Brij-35, 10 mM EDTA (Sigma, E7889)).
Reading of the plate in the Profiler is identical to the LC3000, and the ratio between substrate and product peaks provides the activity of the enzyme in that well. This is best represented by a plate heat map which colors each well by percent inhibition as compared to positive and negative controls (no inhibitors and no ATP respectively).

Each structure is given as a SMILES string.

Usually IC50 stands for the point on the concentration scale where inhibition reaches its midpoint. As for `COc1ccc(CN2Cc3c(Nc4ccc(NC(=O)c5ccccc5)cc4)ccnc3NC2=O)cc1` [Example 2], the concentration for half-maximal inhibition (IC50) lay within 0.1 to 1 µM.

Regarding `O=C1NCc2c(Nc3ccc(NC(=O)c4ccccc4)cc3)ccnc2N1` [Example 4, N-(4-(2-oxo-1,2,3,4-tetrahydropyrido [2,3-d]pyrimidin-5-ylamino)phenyl)benzamide], the IC50 was 0.01 to 0.1 µM.

Regarding `COc1ccc(CN2Cc3c(Nc4ccc(NC(=O)c5ccc(F)cc5C(F)(F)F)cc4)ccnc3NC2=O)cc1` [Example 5, 4-fluoro-N-(4-(3-(4-methoxybenzyl)-2-oxo-1,2,3,4-tetrahydropyrido [2,3-d]pyrimidin-5-ylamino)phenyl)-2-(trifluoromethyl) benzamide], the IC50 lay within 0.1 to 1 µM.

On to `O=C1NCc2c(Nc3ccc(NC(=O)c4ccc(F)cc4C(F)(F)F)cc3)ccnc2N1` [Example 6, 4-fluoro-N-(4-(2-oxo-1,2,3,4-tetrahydropyrido[2,3-d]pyrimidin-5-ylamino)phenyl)-2-(trifluoromethyl) benzamide], for which the 50% inhibitory concentration (IC50) is below 0.01 µM.

Consider `O=C(Nc1ccc(Nc2ccnc3c2CN(c2ccc(CN4CCCC4)cc2)C(=O)N3)cc1)c1ccc(F)cc1C(F)(F)F` [Example 8, 4-fluoro-N-(4-(2-oxo-3-(4-(pyrrolidin-1-ylmethyl)phenyI)-1,2,3,4-tetrahydropyrido[2,3-d]pyrimidin-5-ylamino)phenyl)-2-(trifluoromethyl)benzamide], for which the IC50 was 0.1 to 1 µM.

Regarding `O=C(Nc1ccc(Nc2ccnc3c2CN(c2ccc(CN4CCCC4)cc2)C(=O)N3)cc1)c1ccccc1` [Example 9, N-(4-(2-oxo-3-(4-(pyrrolidin-1-ylmethyl)phenyl)-1,2,3,4-tetrahydropyrido[2,3-d]pyrimidin-5-ylamino)phenyl)benzamide], the half-inhibitory concentration (IC50) fell in the range of 0.1 to 1 µM.

Turning to `CN(C)CCN1Cc2c(Nc3ccc(NC(=O)c4ccc(F)cc4C(F)(F)F)cc3)ccnc2NC1=O` [Example 11, N-(4-(3-(2-(dimethylamino)ethyl)-2-oxo-1,2,3,4-tetrahydropyrido [2,3-d]pyrimidin-5-ylamino)phenyl)-4-fluoro-2-(trifluoromethyl) benzamide], the IC50 fell in the range of 0.1 to 1 µM.

`O=C(Nc1ccc(Nc2ccnc3c2CN(C2CC2)C(=O)N3)cc1)c1ccccc1` [Example 14, N-(4-(3-cyclopropyl-2-oxo-1,2,3,4-tetrahydropyrido[2,3-d]pyrimidin-5-ylamino)phenyl) benzamide]: the IC50 is 0.1 to 1 µM.

Turning to `O=C(Nc1ccc(Nc2ccnc3c2CN(C2CC2)C(=O)N3)cc1)c1ccc(F)cc1C(F)(F)F` [Example 15, N-(4-(3-cyclopropyl-2-oxo-1,2,3,4-tetrahydropyrido [2,3-d]pyrimidin-5-ylamino)phenyl)-4-fluoro-2-(trifluoromethyl) benzamide], the 50% inhibitory concentration (IC50) was in the range of 0.01 to 0.1 µM.

For `CN1Cc2c(Nc3ccc(NC(=O)c4cccc(F)c4)cc3F)ccnc2NC1=O` [Example 20, 3-fluoro-N-(3-fluoro-4-(3-methyl-2-oxo-1,2,3,4-tetrahydropyrido [2,3-d]pyrimidin-5-ylamino)phenyl) benzamide], the IC50 was below 0.01 µM.

As for `CN1Cc2c(Nc3ccc(NC(=O)c4ccc(F)cc4C(F)(F)F)cc3)ccnc2NC1=O` [Example 21, 4-fluoro-N-(4-(3-methyl-2-oxo-1,2,3,4-tetrahydropyrido [2,3-d]pyrimidin-5-ylamino)phenyl)-2-(trifluoromethyl) benzamide], the half-maximal inhibitory concentration (IC50) is below 0.01 µM.

`CN1Cc2c(Nc3ccc(NC(=O)c4ccccc4)cc3)ccnc2NC1=O` [Example 22, N-(4-(3-methyl-2-oxo-1,2,3,4-tetrahydropyrido [2,3-d]pyrimidin-5-ylamino)phenyl) benzamide]: the half-maximal inhibitory concentration (IC50) fell in the range of 0.01 to 0.1 µM.

`CN1Cc2c(Nc3ccc(NC(=O)CC4CC4)cc3)ccnc2NC1=O` [Example 23, 2-cyclopropyl-N-(4-(3-methyl-2-oxo-1,2,3,4-tetrahydropyrido [2,3-d]pyrimidin-5-ylamino)phenyl) acetamide]: the IC50 lay in the range of 0.1 to 1 µM.

For `CN1Cc2c(Nc3ccc(NC(=O)CC(F)(F)F)cc3)ccnc2NC1=O` [Example 24, 3,3,3-trifluoro-N-(4-(3-methyl-2-oxo-1,2,3,4-tetrahydropyrido [2,3-d]pyrimidin-5-ylamino)phenyl) propanamide], the half-maximal inhibitory concentration (IC50) lay in the range of 0.1 to 1 µM.

As for `O=C(Nc1ccc(Nc2ccnc3c2CN(c2ccccc2)C(=O)N3)c(F)c1)c1cccc(F)c1` [Example 26, 3-fluoro-N-(3-fluoro-4-(2-oxo-3-phenyl-1,2,3,4-tetrahydropyrido [2,3-d]pyrimidin-5-ylamino)phenyl) benzamide], the half-maximal inhibitory concentration (IC50) fell in the range of 0.01 to 0.1 µM.

For the molecule `O=C(Nc1ccc(Nc2ccnc3c2CN(c2ccccc2)C(=O)N3)cc1)c1ccc(F)cc1C(F)(F)F` [Example 27, 4-fluoro-N-(4-(2-oxo-3-phenyl-1,2,3,4-tetrahydropyrido [2,3-d]pyrimidin-5-ylamino)phenyl)-2-(trifluoromethyl) benzamide], the concentration for half-maximal inhibition (IC50) was 0.01 to 0.1 µM.

As to `CN1Cc2c(Nc3ccc(NC(=O)c4ccc(F)cc4C(F)(F)F)cc3F)ccnc2NC1=O` [Example 28, 4-fluoro-N-(3-fluoro-4-(3-methyl-2-oxo-1,2,3,4-tetrahydropyrido [2,3-d]pyrimidin-5-ylamino)phenyl)-2-(trifluoromethyl) benzamide], the IC50 is below 0.01 µM.

Turning to `O=C(Nc1ccc(Nc2ccnc3c2CN(CCO)C(=O)N3)cc1)c1ccc(F)cc1C(F)(F)F` [Example 30, 4-fluoro-N-(4-(3-(2-hydroxyethyl)-2-oxo-1,2,3,4-tetrahydropyrido [2,3-d]pyrimidin-5-ylamino)phenyl)-2-(trifluoromethyl) benzamide], the IC50 was in the range of 0.01 to 0.1 µM.

In the case of `O=C(Nc1ccc(Nc2ccnc3c2CN(CCCN2CCCC2=O)C(=O)N3)cc1)c1ccc(F)cc1C(F)(F)F` [Example 31, 4-fluoro-N-(4-(2-oxo-3-(3-(2-oxopyrrolidin-1-yl)propyl)-1,2,3,4-tetrahydropyrido [2,3-d]pyrimidin-5-ylamino)phenyl)-2-(trifluoromethyl) benzamide], the IC50 fell in the range of 0.01 to 0.1 µM.

`O=C(Nc1ccc(Nc2ccnc3c2CN(CCCO)C(=O)N3)cc1)c1ccc(F)cc1C(F)(F)F` [Example 32, 4-fluoro-N-(4-(3-(3-hydroxypropyl)-2-oxo-1,2,3,4-tetrahydropyrido [2,3-d]pyrimidin-5-ylamino)phenyl)-2-(trifluoromethyl) benzamide]: the 50% inhibitory concentration (IC50) is below 0.01 µM.

For `CCN1Cc2c(Nc3ccc(NC(=O)c4ccc(F)cc4C(F)(F)F)cc3)ccnc2NC1=O` [Example 34, N-(4-(3-ethyl-2-oxo-1,2,3,4-tetrahydropyrido [2,3-d]pyrimidin-5-ylamino)phenyl)-4-fluoro-2-(trifluoromethyl) benzamide], the half-inhibitory concentration (IC50) is below 0.01 µM.

For `CCN1Cc2c(Nc3ccc(NC(=O)c4ccccc4)cc3)ccnc2NC1=O` [Example 35, N-(4-(3-ethyl-2-oxo-1,2,3,4-tetrahydropyrido [2,3-d]pyrimidin-5-ylamino)phenyl) benzamide], the 50% inhibitory concentration (IC50) fell in the range of 0.01 to 0.1 µM.

For `CCN1Cc2c(Nc3ccc(NC(=O)c4ccc(F)cc4C(F)(F)F)cc3F)ccnc2NC1=O` [Example 36, N-(4-(3-ethyl-2-oxo-1,2,3,4-tetrahydropyrido [2,3-d]pyrimidin-5-ylamino)-3-fluorophenyl)-4-fluoro-2-(trifluoromethyl) benzamide], the IC50 was below 0.01 µM.
